For one assay, the target named is H-2K^b (Mus musculus, UniProt P01901, A160C/Y105C). In words: Differential Scanning Fluorimetry of pMHC thermal melting. Type of assay: binding. To be noted: DSF, 50 mM HEPES pH 7.5, SYPRO Orange; Tm averaged from 3 experiments; compared to mLAMA4. For orientation: In DSF a fluorescence change marks the thermal transition of the protein.
The test system of assay [1] is antigen-specific CD8 T cells in KP lung adenocarcinoma. Type of assay: in vivo, mouse. To be noted: 5–6 weeks; for CD8 T cell response magnitude, antigen expressed alone: LucA (mALG8) or LucL (mLAMA4); for proportion of TCF1+ progenitor cells, antigens co-expressed / CD8 T cell response magnitude, antigens co-expressed: LucAL; for CD8 T cell response magnitude, antigens co-expressed: compared to the single-antigen setting.

Chain of H-2K^b (P01901 22-295 Y105C/A160C limits assumed): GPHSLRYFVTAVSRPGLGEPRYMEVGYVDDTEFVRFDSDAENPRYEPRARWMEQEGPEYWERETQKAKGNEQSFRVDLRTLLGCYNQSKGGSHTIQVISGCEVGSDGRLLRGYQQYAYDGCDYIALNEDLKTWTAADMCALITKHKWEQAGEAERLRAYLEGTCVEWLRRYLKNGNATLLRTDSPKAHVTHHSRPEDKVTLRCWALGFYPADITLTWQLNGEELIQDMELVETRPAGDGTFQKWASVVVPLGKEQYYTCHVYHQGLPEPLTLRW
Chain of H-2K^b (P61769 21-119 partner): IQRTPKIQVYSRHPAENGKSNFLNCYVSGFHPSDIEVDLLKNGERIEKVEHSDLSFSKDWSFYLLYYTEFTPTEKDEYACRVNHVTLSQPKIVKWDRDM

Take ITYTWTRL [mALG8]: on H-2K^b, the “pMHC complex stability (Koff), relative to mLAMA4” value was “similar, but slightly lower affinity and stability”. In assay [1], the “CD8 T cell response magnitude, antigen expressed alone” value is recorded as “responses of equivalent magnitude”; the “proportion of TCF1+ progenitor cells, antigens co-expressed” value is reported as “increased for both responses (Figure S3M), trending towards greater enrichment for the mALG8 response”; the “CD8 T cell response magnitude, antigens co-expressed” value is given as “neither response became dominant in terms of T cell expansion, but both decreased in magnitude compared to the single-antigen setting”.
In the case of VGFNFRTL [mLAMA4], in assay [1], the “CD8 T cell response magnitude, antigen expressed alone” value is given as “responses of equivalent magnitude”; the “proportion of TCF1+ progenitor cells, antigens co-expressed” value is “increased for both responses”; the “CD8 T cell response magnitude, antigens co-expressed” value is listed as “neither response became dominant in terms of T cell expansion, but both decreased in magnitude compared to the single-antigen setting”.

The record behind these values is publication PMC8522630 (Cell, 2021).
